According to patent US10322124B2, “6-hydroxy-2,5,7,8-tetramethylchroman-compounds for the treatment of chronic obstructive airway diseases” (Sulfateq B.V., priority 2014, dated 2019):
“Also recorded” adds a separate entry of the source. Read-outs that look alike come from different tables or passages of the source.

Experiments:
[1] = system: bovine trachea smooth muscle (BTSM) strips; experiment: Bovine trachea smooth muscle (BTSM) strips, isometric tension measurements; details: for effect of the ß2-adrenoceptor antagonist propranolol on the relaxation of BTSM strips induced by the compound: 1 μM propranolol, 30 minutes prior (FIG. 4); for shift of the dose response curve for isoprenaline (isoprenaline-induced relaxation): BTSM strips pre-incubated with compound at 30 μM (FIG. 5); for contraction induced by methacholine: BTSM strips pre-incubated with compound at 30 μM, methacholine dose response curve (FIG. 6); for EC50: Bos taurus, relaxation of methacholine-pre-contracted BTSM strips, mean ± SEM, 3 determinations; for relaxation of methacholine-pre-contracted BTSM strips: accumulative doses 1-300 μM, strips pre-contracted with methacholine (FIG. 3); for isometric tension of BTSM strips at 30 μM: concentration of 30 μM
Method: (§1) For cell-based studies, the SUL compounds were dissolved in 0.9% NaCl as 1 mM stock solutions. For the isometric tension measurements, the SUL compounds were dissolved in 100% DMSO as 100 mM stock solution.
Assay 3: Bovein Trachea Smooth Muscle (BTSM) Strips and Isometric Tension Measurements
Isometric tension measurements were performed as described previously (Roscioni et al., 2011: Roscioni, Prins et al., 2011). BTSM strips were mounted for isometric recording in organ-baths, containing Krebs-Henseleit (KH) buffer, containing in mM: […], 25 NaHCO3, 5.5 glucose, 5.6 KCl, 1.18 MgSO4, 2.50 CaCl2, 1.28 NaH2PO4, pre-gasses with 5% of CO2 and 95% O2, pH 7.4. After dissection of the smooth muscle layer and careful removal of connective tissue, BTSM strips of approximately 1 cm length and 2 mm width were prepared. Tissue strips were cultured in DMEM supplemented with non-essential amino acid mixture (1:100), sodium pyruvate (1 mM), gentamicin (45 μg*ml−1), penicillin (100 U*ml−1), streptomycin 100 μg*ml−1, amphotericin B (1.5 μg*ml−1) apo-transferrin (5 μg*ml−1) and ascorbic acid (100 μM). The BTSM strips were cultured for 1-3 days before isometric tension measurement in an Innova 4000 incubator shaker 37° C. 55 rpm).
For isometric tension measurements (Roscioni et al., 2011: Roscioni, Prins et al., 2011). BTSM strips were calibrated, were mounted into the transducers and submerged into the organ baths in pre-gassed KH buffer. Each strip was adjusted to a basal tension of 3 gram. Then, the strips were washed, equilibrated again for 60 minutes, followed by pre-contractions induced by 1×10-3.5 μM methacholine. To analyze acute effects of the SUL-compounds on the isometric tension, the strips were incubated with accumulative doses of the SUL-compounds (1-300 μM), followed by the addition of 0.01 μM isoprenaline.
To analyze potential role of the ß2-AR in the effects induced by the SUL-compounds, the strips were incubated with 1 μM propranonol for 30 minutes prior addition of the SUL-compounds. To analyze potential effects of the SUL-compounds on the isoprenaline-induced relaxation, the strips were first incubated with the SUL-compounds (30 μM each), followed by the addition of accumulative doses of isoprenaline (1×10.5-1 μM). Finally, to analyze potential effects of the SUL-compounds on the methacholine-induced contraction, the strips were first incubated with the SUL-compounds (30 μM each), followed by addition of accumulative doses of methacholine (0.001-30 μM), before the addition of 0.01 μM isoprenaline.
Data are shown are mean±standard error of the mean. One-way ANOVA followed by Bonferroni post hoc test, 2-tailed paired t-test, two-way ANOVA was used when appropriate to identify statistical difference between means. A statistical difference was defined as significant at p<0.05.

[2] = system: IL-8 release from hTERT cells; experiment: Release of interleukin-8 (IL-8) from hTERT cells exposed to CSE; format: cell-based, human; details: 24 hours, 15% CSE, ELISA (FIG. 2)
Description: (§2) In this example, the effects of […] H2S compounds, i.e. SUL90, SUL121 were studied on: • 1) The cell viability of human (immortalized) airway smooth muscle cells (hTERT cells), • 2) The release of the inflammation mediator IL-8 from hTERT cells, • 3) Airway smooth muscle contractility of bovine trachea smooth muscle strips. The samples used were: • Two SUL-compounds: SUL90, SUL121; • Human telomerase reverse transcriptase immortalized airway smooth muscles (hTERT) cells, cultured as previously described (Oldenburger et al., 2012). Prior to the experiments, cells were serum-deprived for 1 day, followed by cell treatment with the indicated concentrations of the SUL-compounds in the absence and presence of 15% cigarette smoke extract (CSE) for additional 24 hours. As controls, 1 μM fenoterol and 500 μM of the H2S donor NaHS were used. • 100% cigarette smoke extract (CSE), freshly made by combusting (Watson Marlow 323 E/D, Rotterdam, The Netherlands) the smoke of two research cigarettes (University of Kentucky 2R4F) through 25 mL of DMEM (FBS-free) at a speed of approximately 1 cigarette/5 minutes. Afterwards, CSE was diluted to 15% (Oldenburger et al., 2012).
as §1
Assay 2: Release of interleukin-8 (IL-8) from hTERT Cells
This assay was used to determine the release of interleukin-8 from hTERT cells, fenoterol (1 μM) and the H2S donor (500 μM) served as controls. 24 hours after cell stimulation with the indicated concentrations of the SUL-compounds in the absence and presence of 15% CSW, culture medium was collected to measure the IL-8 concentration in the cell supernatants according to the manufacturer's instructions (PeliKine Compact ELISA kit, Sanquin, The Netherlands), as previously described (Oldenburger et al., 2012.

[3] = system: hTERT cells; experiment: Trypan blue cell counting (cell viability); format: cell-based, human; details: 24 hours, absence or presence of 15% CSE, trypan blue counting (FIG. 1)
Description: as §2, §1
Assay 1: Trypan Blue Cell Counting
For cell viability measurements, trypan blue cell counting was performed as previously described (Oldenburger et al., 2012). As control, 500 μM of the H2S donor NaHS was used. Alternatively, alamar blue measurements were performed to determine cell viability essentially as described before (Oldenburger et al., 2012).
Briefly, hTERT cells were plated on 24-well plates as a cell density of 10,000 cells/well. Again cells were serum-deprived for 1 day, followed by cell treatment with the indicated concentrations of the SUL-compounds in the absence and presence of 15% cigarette smoke extract (CSE) for additional 24 hours.

[4] = 1 μM propranolol pre-incubation, read-out: pD2, Propranolol (converted)
[5] = solvent treated, read-out: pD2, Solvent (converted)

EC50 [1, 4] | EC50 [1, 5] | SMILES | effect of the ß2-adrenoceptor antagonist propranolol on the relaxation of BTSM strips induced by the compound [1] | shift of the dose response curve for isoprenaline (isoprenaline-induced relaxation) [1] | contraction induced by methacholine [1] | relaxation of methacholine-pre-contracted BTSM strips [1] | isometric tension of BTSM strips at 30 μM [1] | CSE-induced IL-8 release from hTERT cells [2] | also measured
316 µM | 398 µM | Cc1c(C)c2c(c(C)c1O)CCC(C)(C(=O)NO)O2 (centres unmarked) [Sul-90, N,6-dihydroxy-2,5,7,8-tetramethylchroman-2-carboxamide] | trend to a left-ward shift; also recorded: does not alter the relaxation | not | reduced the contraction; also recorded: decrease the contraction | shows a trend to induce relaxation | leave the isometric tension unaffected | significantly reduce the release; also recorded: inhibit CSE-induced IL-8 release | effect of the ß2-adrenoceptor antagonist propranolol on the relaxation of BTSM strips induced by the compound ([1]; listed as SUL90): ß2-adrenoceptor-independent; effect of the ß2-adrenoceptor antagonist propranolol on the relaxation of BTSM strips induced by the compound ([1]; listed as Sul90): not affected by propranolol; contraction induced by methacholine ([1]; listed as SUL90): significantly reduce the contraction; concentrations at which a trend to relaxation of BTSM strips is shown ([1]; methacholine-pre-contracted BTSM strips (FIG. 3)): higher than 100 μM; CSE-induced IL-8 release from hTERT cells ([2]; listed as SUL90): inhibit the cellular IL-8 release; cell viability of hTERT cells ([3]; listed as SUL90): do not severely alter cell viability; cell viability of hTERT cells ([3]; listed as SUL-90): seem not to severely alter the cell viability
– | – | Cc1c(C)c2c(c(C)c1O)CCC(C)(C(=O)N1CCN(CC(=O)O)CC1)O2 (centres unmarked) [Sul-136, 2-(4-(6-hydroxy-2,5,7,8-tetramethylchroman-2-carbonyl)piperazin-1-yl)acetic acid] | – | – | – | do not alter the contractile tone | – | – | cell viability of hTERT cells [3]: do not alter cell viability
– | – | CC(C)NCC(O)COc1cccc2ccccc12 (centres unmarked) [propranolol, reference compound] | – | – | – | – | – | – | shift of the dose-response curve for isoprenaline by propranolol ([1]; BTSM strips pre-incubated with 1 μM propranolol (FIG. 4)): right-ward shift
3.98 µM | 0.02 µM | CC(C)NCC(O)c1ccc(O)c(O)c1 (centres unmarked) [Isoprenaline, reference compound] | – | – | – | – | – | – | –
316 µM | 316 µM | Cc1c(C)c2c(c(C)c1O)CCC(C)(C(=O)N1CCNCC1)O2 (centres unmarked) [Sul-121, (6-hydroxy-2,5,7,8-tetramethylchroman-2-yl)(piperazin-1-yl)methanone] | not affected by propranolol; also recorded: does not alter the relaxation | significant right-ward shift; also recorded: shifts the dose response curve or isoprenaline to the right | decrease the contraction | even more pronounced relaxation, reaching statistical significance; also recorded: induce relaxation | leave the isometric tension unaffected | significantly reduce the release; also recorded: inhibit CSE-induced IL-8 release | effect of the ß2-adrenoceptor antagonist propranolol on the relaxation of BTSM strips induced by the compound ([1]; listed as SUL121): ß2-adrenoceptor-independent; shift of the dose response curve for isoprenaline (isoprenaline-induced relaxation) ([1]; listed as SUL212): right-ward shift; contraction induced by methacholine ([1]; listed as SUL121): significantly reduce the contraction; contraction induced by methacholine ([1]; listed as Sul121): reduced the contraction; CSE-induced IL-8 release from hTERT cells ([2]; listed as SUL121): inhibit the cellular IL-8 release; cell viability of hTERT cells ([3]; listed as SUL121): do not severely alter cell viability; cell viability of hTERT cells ([3]; listed as SUL-121): seem not to severely alter the cell viability
